pIC50: −log10 of the molar value. “Also recorded” adds a separate entry of the source.
Key:
[1] = Phase I stability in human liver microsomes; assay type: in vitro ADME; conditions: 1 µM, 0.5 mg/mL microsomes
Method: (§1) APHAD S.r.l (Buccinasco, MI, Italy) performed all evaluations. Detailed protocols are reported in the extended methods section.
Phase I stability in human and mouse liver microsomes. The metabolic stability of K4 and K5 was evaluated after incubation with mouse and human liver microsomes. Briefly, the 2 compounds were dissolved in DMSO and pre-incubated, at the final concentration of 1µM, for 10 min at 37°C in potassium phosphate buffer 50 mM, pH 7.4, 3 mM MgCl2, with mouse and human liver microsomes (Sigma) at the final concentration of 0.5 mg/mL. After the pre-incubation period, reactions were started by adding the cofactors mixture (NADP, Glc6P, Glc6P-DH in 2% Sodium bicarbonate); samples were taken at time 0, 10, 20, 30, and 60 min, and added to ACN with Verapamil 0.1 µM as Internal Standard (IS) to stop the reaction. After centrifugation, the supernatants were analyzed using LC-MS/MS. A control sample without cofactors was added to check the stability of test compounds in the matrix after 60 min. 7-Ethoxycoumarin (7-EC) and propranolol were added as positive reference standards. Samples were analyzed on Acquity UPLC (Waters) coupled with an API 3200 Triple Quadrupole ABSciex. […] The percent of the area of the test compound remaining at the various incubation times was calculated based on the area of the compound at time 0 min. […]

[2] = Thermodynamic solubility, shake flask method; assay type: physicochemical; conditions: PBS buffer; PBS pH 7.4, 24 h at 37°C
Method: as §1
Thermodynamic solubility. The shake flask method measured the thermodynamic solubility of K4 and K5 in PBS buffers at pH 7.4. A saturated solution of the compounds was prepared by incubating the 2 compounds in PBS buffer for 24 h at 37°C under agitation. At the end of the incubation, samples were centrifuged, two aliquots were diluted in acetonitrile (CAN), and each sample was then injected into LC-MS/MS (ESI interface) and quantified on a calibration curve prepared by sequential dilution in ACN. Samples were analyzed on UPLC Acquity (Waters) interfaced with API 3200 (AB Sciex) Triple Quadrupole Mass spectrometer. For K4, a Synergy Polar C18 column was used (50x2, 1mm 5µm, Phenomenex, Temp 35°C, Inj volume 10 µL, mobile phase A: water +0.1% FA, and phase B: ACN 0.1% FA, gradient: 5%-98% B, flow: 0.3 mL/min). For K5, a Gemini NX C18 column was used (50x2, 1mm 5µm, Phenomenex, Temp 35°C, Inj volume 10 µL, mobile phase A: 5mM ammonium formate +0.1% FA, and phase B: MeOH +5%, gradient: 5%-98% B, flow: 0.3 mL/min).

IMR90 cells = experiment: In vitro screening of the 14 in silico-selected compounds, surviving cell count, proliferating vs senescent IMR90; assay type: cell-based, Homo sapiens; conditions: 48 h; for effect on non-senescent IMR90 cells: PD15-PD17, 1 μM; for senolytic activity on senescent IMR90 cells: PD19-PD21, 1 μM
Excerpt: IMR90 and WI38 lung fibroblasts were purchased from ECACC‐Merck. Human bone marrow (BM)‐derived mesenchymal stromal cells (MSCs) were purchased from Lonza. Human umbilical vein endothelial cells (HUVECs) are primary cells obtained from a pool of donors purchased from Clonetics (Lonza). Murine ear fibroblasts (MearFs) were obtained from C57BL/6J mice maintained in the INRCA “Specific Pathogen Free” (SPF) animal facility. MCF7 breast cancer cells were purchased from ATCC. For dose–response curves, IMR90 and WI38 were induced to senescence through replicative passages; MSCs, HUVECs, and MearFs senescence was induced with Doxorubicin; MCF7 senescence was induced with 4‐Hydroxytamoxifen (Lee et al. [2014]). The EC50 was calculated using GraphPad Prism 10 software. All treatment specifications are reported in the extended section.
Cell culture and treatment. IMR90 cells (Homo sapiens, fetal lung, fibroblast) and WI38 cells (Homo sapiens, fetal lung, fibroblast) were purchased from ECACC-Merck (Merck, Darmstadt, Germany) and cultured in MEM medium (Euroclone, Milano, Italy) supplemented with 1% L-Glutamine (Euroclone, Milano, Italy), 1% Penicillin-Streptomycin (Euroclone, Milano, Italy), and 10% Fetal Bovine Serum (FBS, Euroclone, Milano, Italy), at 37°C, 5% CO2. IMR90 cells with a population doubling (PD) from PD15 to PD23 were used; cells were considered incrementally senescent from passage PD19 to passage PD23. WI38 cells were used from PD26 to PD53. Cells were considered incrementally senescent from passage PD49 to passage PD53. For the compounds in vitro screening, IMR90 cells with passages from PD15 to PD23 were tested at increasing concentrations of 0.5 μM, 1 μM, 10 μM, and 25 μM over 24 and 48 h to evaluate the compounds' efficacy and cytotoxicity compared to the Vehicle (DMSO ≤ 0.1%). Cells were counted manually, in triplicate, using Trypan blue reagent (Euroclone) and disposable Bürker chambers. […] K5 dose-response proliferation curves were performed with compound K5 (Molport, SIA, Riga, Latvia) in concentrations 0.1, 0.5, 1, 5, 10, 50, 100, and 200 μM for 48 h. Cells were counted using a Trypan blue reagent and EVAplus cell counter. The EC50s were calculated by analyzing the data using GraphPad Prism 10 software.

HSP90α [3] = target: T1, HSP90α (Homo sapiens, UniProt P07900); experiment: Cellular thermal shift assay (CETSA) on cellular lysates, HSP90α; conditions: 46°C, compound 0.5 mM
Method: (§2) Cellular Thermal Shift Assay (CETSA). […] Briefly, the cellular extract was lysed in RIPA buffer (10 mM Tris-HCl pH 7.4, 250 mM NaCl, 1% NP40/IGEPAL, 1% DOC, 0.01% SDS, 0.01% Glycerol, supplemented with protease/phosphatase inhibitor, PI/PhI mix and 2 mM DTT) and protein concentration was determined by a BCA kit (Pierce, Life Technologies, TFS, Waltham, MA, USA). Samples were homogenized by 3 cycles of freeze-thawing using liquid nitrogen and centrifuged at 13000 rpm at 4 °C for 30 min to separate the soluble fraction from the debris.
(§3) Following the supplier's recommendations, samples were loaded into the proper cartridge (12- 230 kDa Wes/Jess Separation Modules, ProteinSimple, Biotechne, Minneapolis, MN, USA). HSP90α (1:50, MsMAb, Abcam), HSP90β (1:50, RbMAb, Abcam), GRP94 (1:50, RbMAb, Abcam), TRAP1 (1:50, MsMAb, Abcam), α-Tubulin (1:500, MsMAb, Abcam), and β-Actin (1:500, RbMAb, Abcam) were used as primary antibodies. Secondary antibodies were Anti-Mouse Secondary HRP and Anti-Rabbit Secondary HRP (ProteinSimple, Biotechne, Minneapolis, MN, USA).

GRP94 = GRP94 (Homo sapiens, UniProt P14625); experiment: Cellular thermal shift assay (CETSA) on cellular lysates, GRP94; conditions: 46°C, compound 0.5 mM
Method: as §2, §3

HSP90β = HSP90β (Homo sapiens, UniProt P08238); experiment: Cellular thermal shift assay (CETSA) on cellular lysates, HSP90β; conditions: 46°C, compound 0.5 mM
Method: as §2, §3

HSP90α [4] = target: T1, HSP90α; experiment: HSP90 N-Terminal Domain Assay Kit, fluorescence polarization competition with FITC-Geldanamycin; assay type: binding; set-up: purchased BPS Bioscience 50293; conditions: dose-response 1 pM to 10 μM, n = 3, extrapolated with GraphPad Prism; read-out: HSP90α inhibition IC50
Method: HSP90‐directed inhibitory activity was assessed employing the HSP90 N‐Terminal Domain Assay Kit (BPS Bioscience) according to the manufacturer's instructions. The fluorescence intensity was measured with a multiplate reader (Victor Nivo‐Perkin Elmer). The IC50 was calculated by analyzing the data using GraphPad Prism 10 software.
HSP90 inhibition activity assay. […] […] […] Data are the percentage of residual enzyme activity relative to the solvent (DMSO). The IC50s were calculated by analyzing the data using GraphPad Prism 10 software.

Chain of GRP94 (P14625 22-803): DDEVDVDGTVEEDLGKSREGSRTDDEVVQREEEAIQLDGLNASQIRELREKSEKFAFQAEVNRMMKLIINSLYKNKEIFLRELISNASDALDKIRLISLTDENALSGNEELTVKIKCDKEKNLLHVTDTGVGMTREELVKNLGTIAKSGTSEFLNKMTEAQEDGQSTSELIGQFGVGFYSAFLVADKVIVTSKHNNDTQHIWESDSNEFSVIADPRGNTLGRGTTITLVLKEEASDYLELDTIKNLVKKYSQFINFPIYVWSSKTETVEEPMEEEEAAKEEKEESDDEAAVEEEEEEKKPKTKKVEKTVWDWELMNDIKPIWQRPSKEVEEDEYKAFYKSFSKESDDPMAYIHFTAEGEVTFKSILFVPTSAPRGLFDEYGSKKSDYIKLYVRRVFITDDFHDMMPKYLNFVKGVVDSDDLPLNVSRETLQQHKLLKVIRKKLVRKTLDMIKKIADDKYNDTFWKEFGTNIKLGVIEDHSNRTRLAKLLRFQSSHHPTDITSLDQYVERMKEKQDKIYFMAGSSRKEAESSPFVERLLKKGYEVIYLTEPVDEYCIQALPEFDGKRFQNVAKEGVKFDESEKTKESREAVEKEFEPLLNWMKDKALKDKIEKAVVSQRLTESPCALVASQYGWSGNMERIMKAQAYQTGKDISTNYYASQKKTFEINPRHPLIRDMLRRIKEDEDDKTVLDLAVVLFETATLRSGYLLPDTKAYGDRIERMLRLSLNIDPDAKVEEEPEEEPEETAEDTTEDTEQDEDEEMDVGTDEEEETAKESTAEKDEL
Chain of HSP90β (P08238 whole entry, the tested form may be a part): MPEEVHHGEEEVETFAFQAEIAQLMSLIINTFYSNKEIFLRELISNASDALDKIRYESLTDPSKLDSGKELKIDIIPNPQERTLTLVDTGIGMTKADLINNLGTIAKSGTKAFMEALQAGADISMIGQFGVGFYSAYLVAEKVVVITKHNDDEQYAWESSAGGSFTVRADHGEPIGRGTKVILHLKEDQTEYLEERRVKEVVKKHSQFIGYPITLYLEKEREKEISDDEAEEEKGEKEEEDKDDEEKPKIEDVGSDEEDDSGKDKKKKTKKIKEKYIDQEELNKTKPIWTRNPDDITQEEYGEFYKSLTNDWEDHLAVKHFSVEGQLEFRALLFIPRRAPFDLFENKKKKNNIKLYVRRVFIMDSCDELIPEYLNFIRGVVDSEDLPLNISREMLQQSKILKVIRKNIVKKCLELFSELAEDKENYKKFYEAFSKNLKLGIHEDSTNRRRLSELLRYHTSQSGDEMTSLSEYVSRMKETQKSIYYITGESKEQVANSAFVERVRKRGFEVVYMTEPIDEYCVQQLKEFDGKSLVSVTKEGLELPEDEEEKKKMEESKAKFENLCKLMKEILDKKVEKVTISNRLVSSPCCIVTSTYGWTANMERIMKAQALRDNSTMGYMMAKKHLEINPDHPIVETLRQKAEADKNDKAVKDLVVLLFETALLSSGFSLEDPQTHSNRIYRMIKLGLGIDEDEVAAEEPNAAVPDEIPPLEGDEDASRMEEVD

SMILES | metabolic stability in human microsomes [1] | solubility thermodynamic at 24 h [2] [µg/mL] | effect on non-senescent IMR90 cells (IMR90 cells) | senolytic activity on senescent IMR90 cells (IMR90 cells) | interaction / stabilization of HSP90α in CETSA (HSP90α [3]) | stabilization of GRP94 in CETSA (GRP94) | stabilization of HSP90β in CETSA (HSP90β) | pIC50 (HSP90α [4])
CC(C)(C)S(=O)(=O)C/C(N)=N/OS(=O)(=O)c1ccc(F)cc1F [Compound K4, (Z)-N'-[(2,4-difluorobenzenesulfonyl)oxy]-2-(2-methylpropane-2-sulfonyl)ethanimidamide] | stable | ~400 | robust level of safety | evident senolytic activity; also recorded: highest senolytic activity | potent and selective interaction | did not observe a stabilization | did not observe a stabilization | 6.81
Cc1ccccc1-n1c(=O)n(Cc2ccccc2)c(=O)c2[nH]cnc21 [Compound K5, 1-benzyl-3-(2-methylphenyl)-7H-purine-2,6-dione] | stable | ~200 | robust level of safety | evident senolytic activity; also recorded: highest senolytic activity | potent and selective interaction | did not observe a stabilization | did not observe a stabilization | 6.95

Source: PMC12266748, “A Xanthine Derivative With Novel Heat Shock Protein 90‐Alpha Inhibitory and Senolytic Properties” (Aging Cell, 2025)
